Laboratory results: patent US6589957B2, “Compounds and methods of use for treatment of neurogenic inflammation” (Harbor Branch Oceanographic Institution, Inc., priority 1998, dated 2003)

Tested on: resiniferatoxin (RTX)-induced mouse ear edema
Test: Inhibition of resiniferatoxin-induced inflammation (edema) of the mouse ear
Assay type: in vivo
Settings: 50 μg/ear topically in acetone together with RTX 0.1 μg/ear, 30-minute incubation, relative to control group edema
Method: Inhibition of Resiniferatoxin-Induced Inflammation (Edema) of the Mouse Ear
Induction of mouse ear edema can be conducted by known methods (Inoue, 1-f., N. Nagata, Y. Koshffiara [1993]). Compounds to be tested for anti-neurogenic inflammatory activity are topically applied in acetone to the ears of mice in a solution that includes the edema-causing irritant resiniferatoxin (RTX). RTX alone (0.1 μg/ear) or in combination with various dilutions of test compound are applied to both sides of the left ears (5 mice per treatment group) and acetone is applied to all right ears. After a 30-minute incubation, the mice are sacrificed, the ears removed, and bores taken and weighed. Edema is measured by subtracting the weight of the right ear (acetone control) from the weight of the left ear (treated). Results are recorded as % decrease (inhibition) or % increase (potentiation) in edema relative to the control group edema.
Bis-heterocycle compounds of the subject invention, e.g., the bis-indole compounds, show significant anti-inflammatory properties.

Compound | inhibition of RTX-induced edema
CC1c2[nH]c(N)nc2C2(O)CC1c1c(-c3cnc(-c4c[nH]c5cc(Br)ccc45)c(=O)[nH]3)c[nH]c1C2=O (stereo not drawn) [dragmacidin f] | approximately 69.9%
Nc1ncc(C(Cc2nc(C(=O)c3c[nH]c4cc(O)ccc34)[nH]c2-c2c[nH]c3cc(Br)ccc23)C(=O)O)[nH]1 (stereo not drawn) [topsentin d] | approximately 96.9%
CC(c1cnc(N)[nH]1)c1nc(C(=O)c2c[nH]c3cc(O)ccc23)[nH]c1-c1c[nH]c2cc(Br)ccc12 (stereo not drawn) [topsentin e] | approximately 88.4%
